Molecular target: STING (Homo sapiens, UniProt Q86WV6)
Test: STING antagonist activity, cell-based ISG54 promoter-reporter luciferase measurement of IRF activity (THP-1 dual / RAW-ISG cells)
Settings: Antagonist Activity of Exemplary Compounds; cell line and agonist not given; read-out: IC50
Method: THP-1 dual cells (InvivoGen) were cultured under 5% CO2 at 37° C. in RPMI containing 10% fetal bovine serum (FBS), 100 IU mL-1 penicillin and 100 μg mL-1 streptomycin. RAW-ISG cells (InvivoGen) were cultured under 5% CO2 at 37° C. in DMEM containing 10% fetal bovine serum (FBS), 100 IU mL-1 penicillin and 100 μg mL-1 streptomycin. THP-1 dual cells were seeded into the 96 well assay plate on the day of assay whereas RAW cells were seeded into the 96 well assay plate 18 hours before the assay.
(§1) 50,000 cells seeded in a 96-well flat bottom white assay plate were treated with different concentrations (10 uM to 0.01 uM) of compounds for 1 h followed by STING induction with either 30 nM SB 11285 or 10 ug/mL 2′-3′ cGAMP. The cells were then incubated for 20 hours @ 37° C. in CO2 incubator before measuring IRF activation by using Quanti-Luc (InvivoGen). The % inhibition was calculated as 100−{[(luminescence of COI treated well/luminescence of non-COI treated well)/100]×100}. IC50 was calculated by plotting in Xlfit.
as §1, with “1 μM” for “30 nM”
THP1-Dual-WT cells (InvivoGen) were plated into 96-well flat bottom plate at 5×10^4 cells/140 μL/well in triplicate. Cells were then treated with diluted antagonist compounds at 10 μL/well for 1 h, followed by treatment with compounds or 2′3′-cGAMP/lipo mixture for 18 h. The levels of IRF activity were determined using Quanti-luc (InvivoGen) and calculated against IRF activity in DMSO-treated cells. IC50 and CC50 values were calculated using Xlfit.

STING, sequence (Q86WV6 whole entry): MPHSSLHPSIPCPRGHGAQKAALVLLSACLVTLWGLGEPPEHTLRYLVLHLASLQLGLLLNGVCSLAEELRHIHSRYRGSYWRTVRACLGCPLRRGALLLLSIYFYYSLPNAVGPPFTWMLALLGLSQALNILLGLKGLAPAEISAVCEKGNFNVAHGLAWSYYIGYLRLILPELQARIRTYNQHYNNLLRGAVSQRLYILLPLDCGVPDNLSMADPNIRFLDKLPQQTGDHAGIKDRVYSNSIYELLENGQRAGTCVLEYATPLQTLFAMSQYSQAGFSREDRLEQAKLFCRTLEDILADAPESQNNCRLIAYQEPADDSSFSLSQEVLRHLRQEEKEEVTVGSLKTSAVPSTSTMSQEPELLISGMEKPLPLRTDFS

SMILES	IC50
COC(=O)CCCCCCCCCCCCCCCn1cnc2ncnc(Cl)c21 [Compound 1]	1 to 5 µM
COC(=O)CCCCCCCCCCCCCCCn1cnc2nc(Cl)ncc21 [Compound 2]	10 to 20 µM
COC(=O)CCCCCCCCCCCCCCCn1cnc2ncncc21 [Compound 3]	> 20 µM
COC(=O)CCCCCCCCCCCCCCCn1ccc2nc(Cl)nc(Cl)c21 [Compound 4]	> 20 µM
COC(=O)CCCCCCCCCCCCCCCn1cnc2nc(N)nc(Cl)c21 [Compound 5]	5 to 10 µM
COC(=O)CCCCCCCCCCn1cnc2nc(Cl)nc(Cl)c21 [Compound 7]	0.001 to 1 µM
CCOC(=O)Cn1cnc2nc(Cl)nc(Cl)c21 [Compound 8]	0.001 to 1 µM
COC(=O)CCCCCCCCCCCCCCCn1cnc2nc(Cl)nc(N)c21 [Compound 9, methyl (6-amino-2-chloro-7H-purin-7-yl)hexadecanoate]	1 to 5 µM
O=C(O)CCCCCCCCCCCCCCCn1cnc2nc(Cl)nc(O)c21 [Compound 10, 16-(2-chloro-6-hydroxy-7H-purin-7-yl)hexadecanoic acid]	> 20 µM
COC(=O)CCCCCCCCCCCCCCCn1cnc2nc(Cl)nc(O)c21 [Compound 11, methyl 16-(2-chloro-6-hydroxy-7H-purin-7-yl)hexadecanoate]	10 to 20 µM
CCOC(=O)CCCCCCCn1cnc2nc(Cl)nc(Cl)c21 [Compound 12]	0.001 to 1 µM
COC(=O)CCCCCCn1cnc2nc(Cl)nc(Cl)c21 [Compound 13]	0.001 to 1 µM
CCCCCCCCCCCCCCC(C(=O)OCc1ccc(OC)cc1)n1cnc2c(Cl)nc(Cl)nc21 (stereo not drawn) [Compound 15, 4-methoxybenzyl 2-(2,6-dichloro-9H-purin-9-yl)hexadecanoate]	> 20 µM
CCCCCCCCCCCCCCC(C(=O)O)n1cnc2c(Cl)nc(Cl)nc21 (stereo not drawn) [Compound 16]	10 to 20 µM
CCCCCCCCCCCCCCC(C(=O)O)n1ccc2c(Cl)nc(Cl)nc21 (stereo not drawn) [Compound 17, 2-(2,4-dichloro-7H-pyrrolo[2,3-d]pyrimidin-7-yl)hexadecanoic acid]	> 20 µM
CCCCCCCCC(C(=O)OCC)n1cnc2c(Cl)nc(Cl)nc21 (stereo not drawn) [Compound 18, ethyl 2-(2,6-dichloro-9H-purin-9-yl)decanoate]	1 to 5 µM
CCCCCCCCC(C(=O)O)n1cnc2c(Cl)nc(Cl)nc21 (stereo not drawn) [Compound 19, 2-(2,6-dichloro-9H-purin-9-yl)decanoic acid]	5 to 10 µM
COC(=O)CCCCCCCCCCCCCCCn1cnc2c(NCCS(N)(=O)=O)nc(Cl)nc21 [Compound 21]	10 to 20 µM
COc1ccc(Cn2cnc3c(NCCCCCC(=O)O)nc(Cl)nc32)cc1 [Compound 22, 6-((2-chloro-9-(4-methoxybenzyl)-9H-purin-6-yl)amino)hexanoic acid]	> 20 µM
CNc1nc(Cl)nc2ncn(CCCCCCCCCCCCCCCC(=O)OC)c12 [Compound 23, methyl 16-(2-chloro-6-(methylamino)-7H-purin-7-yl)hexadecanoate]	> 20 µM
COC(=O)CCCCCCCCCCCCCCCn1cnc2nc(Cl)nc(N(C)C)c21 [Compound 24, methyl 16-(2-chloro-6-(dimethylamino)-7H-purin-7-yl)hexadecanoate]	1 to 5 µM
OCCCCCCCCCCCCCCCCn1cnc2nc(Cl)nc(Cl)c21 [Compound 25, 16-(2,6-dichloro-7H-purin-7-yl)hexadecan-1-ol]	0.001 to 1 µM
CCCCCCCCCCCCCCCCn1cnc2nc(Cl)nc(Cl)c21 [Compound 26, 2,6-dichloro-7-hexadecyl-7H-purine]	0.001 to 1 µM
COC(=O)CCCCCCCCCCCCCCCn1cnc2ncnc(SC)c21 [Compound 27, methyl 16-(6-(methylthio)-7H-purin-7-yl)hexadecanoate]	5 to 10 µM
COC(=O)CCCCCCCCCCCCCCCn1cnc2ncnc(S(C)(=O)=O)c21 [Compound 28, methyl 16-(6-(methylsulfonyl)-7H-purin-7-yl)hexadecanoate]	0.001 to 1 µM
COC(=O)CCCCCCCCCCCCCCCn1c(C)nc2nc(Cl)nc(Cl)c21 [Compound 29, methyl 16-(2,6-dichloro-8-methyl-7H-purin-7-yl)hexadecanoate]	0.001 to 1 µM

SMILES	IC50
O=C(O)CCCCCCCCCCCCCCCn1cnc2nc(Cl)nc(Cl)c21 [Compound 30, 16-(2,6-dichloro-7H-purin-7-yl)hexadecanoic acid]	1 to 5 µM
COC(=O)CCCCCn1cnc2nc(Cl)nc(Cl)c21 [Compound 31, methyl 6-(2,6-dichloro-7H-purin-7-yl) hexanoate]	1 to 5 µM
COC(=O)CCCCn1cnc2nc(Cl)nc(Cl)c21 [Compound 32, methyl 5-(2,6-dichloro-7H-purin-7-yl)pentanoate]	1 to 5 µM
CC(=O)OCCCCCn1cnc2nc(Cl)nc(Cl)c21 [Compound 33, 5-(2,6-dichloro-7H-purin-7-yl)pentyl acetate]	1 to 5 µM
COC(=O)CCCCCCCCCCCCCCCn1c(C)nc2c(Cl)nc(Cl)nc21 [Compound 34, methyl 16-(2,6-dichloro-8-methyl-9H-purin-9-yl)hexadecanoate]	10 to 20 µM
Clc1nc(Cl)c2c(ncn2CCCCCCCCCCCCn2cnc3nc(Cl)nc(Cl)c32)n1 [Compound 35, 1,12-bis(2,6-dichloro-7H-purin-7-yl) dodecane]	1 to 5 µM
CCCCCCCCC(C(=O)OCC)n1cnc2nc(Cl)nc(Cl)c21 (stereo not drawn) [Compound 36, ethyl 2-(2,6-dichloro-7H-purin-7-yl) decanoate]	1 to 5 µM
COC(=O)CCCn1cnc2nc(Cl)nc(Cl)c21 [Compound 37, methyl 4-(2,6-dichloro-7H-purin-7-yl)butanoate]	5 to 10 µM
COC(=O)CCCCCCCCCCCCCCCn1cnc2nc(F)nc(Cl)c21 [Compound 38, methyl 16-(6-chloro-2-fluoro-7H-purin-7-yl)hexadecanoate]	1 to 5 µM
COC(=O)CCCCCCCCCCCCCCCn1cnc2nc(Cl)nc(S(C)(=O)=O)c21 [Compound 39, methyl 16-(2-chloro-6-(methylsulfonyl)-7H-purin-7-yl) hexadecanoate]	> 20 µM
OCCCCCCCCCCn1cnc2nc(Cl)nc(Cl)c21 [Compound 40, 10-(2,6-dichloro-7H-purin-7-yl)decan-1-ol]	0.001 to 1 µM
COC(=O)CCCCCCCCCCCCCCCn1cnc2nccc(Cl)c21 [Compound 41, methyl 16-(7-chloro-1H-imidazo[4,5-b]pyridin-1-yl) hexadecanoate]	> 20 µM
COC(=O)CCCCCCCCCCCCCCCn1cnc2c(Cl)ccnc21 [Compound 42, methyl 16-(7-chloro-3H-imidazo[4,5-b]pyridin-3-yl) hexadecanoate]	> 20 µM
COC(=O)CCCCCCCCCCCCCCCn1cnc2ccnc(Cl)c21 [Compound 43]	> 20 µM
COC(=O)CCCCCCCCCCCCCCCn1cnc2c(Cl)nccc21 [Compound 44]	> 20 µM
OCCCCCCn1cnc2nc(Cl)nc(Cl)c21 [Compound 45, 6-(2,6-dichloro-7H-purin-7-yl)hexan-1-ol]	1 to 5 µM
COC(=O)CCCCCCCCCCCCCCCn1cnc2nc(NC(C)=O)nc(Cl)c21 [Compound 46, methyl 16-(2-acetamido-6-chloro-7H-purin-7-yl) hexadecanoate]	> 20 µM
COC(=O)CCCCCCCCCCCCCCCn1cnc2c(Cl)nc(NC(C)=O)nc21 [Compound 47, methyl 16-(2-acetamido-6-chloro-9H-purin-9-yl)hexadecanoate]	> 20 µM
OCCOCCOCCOCCn1cnc2nc(Cl)nc(Cl)c21 [Compound 48, 2-(2-(2-(2-(2,6-dichloro-7H-purin-7-yl)ethoxy)ethoxy)ethoxy)ethan-1-ol]	1 to 5 µM
CC(C)n1cnc2nc(Cl)nc(Cl)c21 [Compound 49, 2,6-dichloro-7-isopropyl-7H-purine]	> 20 µM
COC(=O)CCCCCCCCCCCCCCCn1ccc2c(Cl)nc(Cl)nc21 [Compound 50, methyl 16-(2,4-dichloro-7H-pyrrolo[2,3-d]pyrimidin-7-yl)hexadecanoate]	> 20 µM
OCCOCCOCCOCCn1cnc2c(Cl)nc(Cl)nc21 [Compound 51, 2-(2-(2-(2-(2,6-dichloro-9H-purin-9-yl)ethoxy)ethoxy)ethoxy)ethan-1-ol]	> 20 µM
COC(=O)CCCCCCCCCCCCCCCn1c(O)nc2nc(Cl)nc(Cl)c21 [Compound 52, methyl 16-(2,6-dichloro-8-oxo-8,9-dihydro-7H-purin-7-yl)hexadecanoate]	> 20 µM
COC(=O)CCCCCCCCCCCCCCCn1c(O)nc2c(Cl)nc(Cl)nc21 [Compound 53, methyl 16-(2,6-dichloro-8-oxo-7,8-dihydro-9H-purin-9-yl)hexadecanoate]	> 20 µM
Clc1nc(Cl)c2c(ncn2C/C=C/Cn2cnc3nc(Cl)nc(Cl)c32)n1 [Compound 54, (E)-1,4-bis(2,6-dichloro-7H-purin-7-yl)but-2-ene]	1 to 5 µM
